Assay results reported in PMC12813973, “Consequences of Peptide Macrocyclization Revealed by Virus-Inspired β‑Hairpin Mimetics” (ACS Chemical Biology, 2025).
Where two headings read alike, the source gives them in different places.

Biological target: T1, STAT1 (Homo sapiens, UniProt P42224)
T1 construct: full-length STAT1 (Uniprot #P42224-1) was expressed in E. coli; His tag (pEXP-NHis vector) (N); made in house; host or cells: E. coli T7 Express
T1 sequence (P42224 1-750): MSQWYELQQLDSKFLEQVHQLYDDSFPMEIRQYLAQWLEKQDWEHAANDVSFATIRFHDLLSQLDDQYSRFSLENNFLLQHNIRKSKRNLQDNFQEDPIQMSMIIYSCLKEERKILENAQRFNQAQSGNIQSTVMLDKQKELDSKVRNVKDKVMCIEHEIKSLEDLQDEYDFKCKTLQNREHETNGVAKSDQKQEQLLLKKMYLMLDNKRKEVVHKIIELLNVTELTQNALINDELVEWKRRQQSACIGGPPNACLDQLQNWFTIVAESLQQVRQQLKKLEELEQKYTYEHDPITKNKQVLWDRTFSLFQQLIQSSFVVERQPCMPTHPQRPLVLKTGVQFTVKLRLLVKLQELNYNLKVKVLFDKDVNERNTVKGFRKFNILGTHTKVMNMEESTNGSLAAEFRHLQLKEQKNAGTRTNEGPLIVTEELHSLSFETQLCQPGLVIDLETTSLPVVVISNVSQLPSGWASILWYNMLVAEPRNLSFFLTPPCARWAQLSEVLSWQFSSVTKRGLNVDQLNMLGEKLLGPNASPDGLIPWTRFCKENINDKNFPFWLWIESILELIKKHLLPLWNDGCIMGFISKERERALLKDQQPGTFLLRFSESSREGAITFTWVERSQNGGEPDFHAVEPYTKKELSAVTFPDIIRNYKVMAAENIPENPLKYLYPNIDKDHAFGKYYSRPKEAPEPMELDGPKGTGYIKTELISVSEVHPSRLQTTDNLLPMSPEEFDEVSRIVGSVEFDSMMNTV
Experiment: Isothermal titration calorimetry (ITC) of peptide binding to STAT1
Experimental: To determine affinities and thermodynamic profiles of binding, we performed isothermal titration calorimetry (ITC) experiments for peptides 1, 2, 3, 4, 7, and 8 (Figures A,B and S1,S2, Table S1). […] The experiments were repeated in two different buffer systems, TBST (50 mM Tris pH 8.0, 300 mM NaCl, 0.01% Tween-20) and PBST ([…], 150 mM NaCl, 0.01% Tween-20), to account for possible buffer protonation enthalpy artifacts. […]
Isothermal titration calorimetry (ITC)
ITC experiments were performed using a PEAQ ITC instrument (Malvern Panalytical) in either TBST (50 mM Tris pH 8.0, 300 mM NaCl, 0.5 mM TCEP, 0.01% Tween -20) or PBST (10 mM sodium phosphate pH 7.4, 150 mM NaCl, 0.01% Tween -20) as reaction buffers. STAT1 protein was buffer -exchanged into reaction buffer supplemented with 2% DMSO on a NAP -5 deslating column (Cytiv a #17085301) and its concentration was adjusted to 10 or 20 μM.
Peptides were diluted in reaction buffer from DMSO stocks to a matching 2% DMSO concentration. Peptide concentrations were adjusted to approximately 100-200 μM. ITC experiments were performed with STAT1 in the cell and peptides in the syringe at 25°C, with 750 RPM stirring, DP = 4 μcal/sec. 18 injections of 2 μl were performed over a 50 min titration.
Thermogram integra tion and isotherm fitting were performed using the PEAQ ITC analysis software (Malvern Panalytical ). Isotherms were fitted using a 1:1 binding model. Due to challenges in determining peptide concentrations with high accuracy , protein concentrations and stoichiometry (N=1.0) were kept constant during isotherm fitting, whereas peptide concentrations were allowed to vary. Fixing a single reactant concentration during fitting is acceptable given the sufficiently high C -values and isotherm curvature observed in the […]
Offset subtraction was implemented to remove injection heats.

[1] = PBST, replicate 1 (first listed run, Table S1)
[2] = PBST, replicate 2 (second listed run, Table S1)
[3] = PBST, replicate 3 (third listed run, Table S1)
[4] = TBST, replicate 1 (first listed run, Table S1)
[5] = TBST, replicate 2 (second listed run, Table S1)
[6] = TBST, replicate 3 (third listed run, Table S1)

CC[C@H](C)[C@H](NC(=O)[C@H](Cc1ccccc1)NC(=O)[C@@H](NC(=O)[C@H](CO)NC(=O)[C@H](Cc1c[nH]c2ccccc12)NC(=O)[C@H](CCSC)NC(C)=O)C(C)C)C(=O)N[C@@H](Cc1c[nH]cn1)C(=O)NCC(=O)N[C@@H](Cc1c[nH]cn1)C(=O)N[C@@H](CC(=O)O)C(=O)NCC(=O)N[C@@H](CO)C(=O)N[C@@H](CC(N)=O)C(=O)N[C@@H](CCCCN)C(=O)NCC(=O)N[C@@H](CO)C(=O)N[C@@H](CCCCN)C(=O)N[C@H](C(=O)N[C@@H](Cc1ccc(O)cc1)C(=O)N[C@H](C(N)=O)[C@@H](C)O)[C@@H](C)O [Peptide 1]
Kd (PBST pH 7.4 (NaPi, 150 mM NaCl, 0.01% Tween-20), average of 2–3 technical replicates, read-out: KD (ITC, summary Fig 2B)): 253 nM | -T∆S [1]: 13.8 kcal/mol | ∆G [1]: -9.00 kcal/mol | ∆H [1]: -22.8 kcal/mol | -T∆S [2]: 12.7 kcal/mol | ∆G [2]: -9.17 kcal/mol | ∆H [2]: -21.8 kcal/mol | -T∆S [3]: 13.7 kcal/mol | ∆G [3]: -8.87 kcal/mol | ∆H [3]: -22.6 kcal/mol | Kd (TBST (50 mM Tris pH 8.0, 300 mM NaCl, 0.01% Tween-20), 25°C, 1:1 model, average of three technical replicates ± SD (text and Fig 2A), SD, read-out: KD (ITC)): 533 ± 20 nM | -TΔS (ITC) (TBST, mean ± SD, SD): 10.10 ± 1.48 kcal/mol | ΔH (ITC) (TBST, mean ± SD, SD): -18.56 ± 1.55 kcal/mol | -T∆S [4]: 9.86 kcal/mol | ∆G [4]: -8.54 kcal/mol | ∆H [4]: -18.1 kcal/mol | -T∆S [5]: 8.75 kcal/mol | ∆G [5]: -8.58 kcal/mol | ∆H [5]: -17.3 kcal/mol | -T∆S [6]: 11.7 kcal/mol | ∆G [6]: -8.55 kcal/mol | ∆H [6]: -20.3 kcal/mol
